Data published in ChEMBL document CHEMBL1201862, “PubChem BioAssay data set” (2004).
The source made the active and inactive calls.

Assays:
[1] = biological target: Eukaryotic translation initiation factor 4E (Mus musculus, UniProt P63073); test: blockers of eIF4G binding by eIF4E – biochemical, TR-FRET, dose response (AID 855); type: functional;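 further: potency for disrupting eIF4E binding to eIF4GI seen as loss of FRET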
[2] = biological target: Paired box protein Pax-8 (Homo sapiens, UniProt Q06710); test: PAX8 transcriptional activity inhibition in RMG-I – RMG-I cells, luciferase, cherry-pick, dose response (AID 687027); type: functional, cell-based;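 further: luciferase reporter driven by Pax8 target thyroperoxidase promoter measured by SteadyGlo luminescence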
[3] = general cell-killing toxicity readout – plate reader, dry powder samples, cytotoxicity control for PAX8 inhibitor project, dose response (AID 743021); type: functional, cell-based
[4] = tested on: Escherichia coli; test: microbe, parasite or virus in culture
[5] = biological target: Ras and Rab interactor 1/Tyrosine-protein kinase ABL1 (Homo sapiens, UniProt P00519+Q13671); type: functional;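 further: biochemical TR-FRET dose-response test measuring inhibition of binding between Rin1 and Abl proteins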
[6] = biological target: T1, Adenosylmethionine-8-amino-7-oxononanoate aminotransferase (Mycobacterium tuberculosis, UniProt P9WQ81); test: Mycobacterium tuberculosis BioA enzyme inhibitor Measured in Biochemical System Using Plate Reader - 2163-02_Inhibitor_Dose_CherryPick_Activity.; type: functional, Mycobacterium tuberculosis UT205
T1 sequence (P9WQ81 whole entry): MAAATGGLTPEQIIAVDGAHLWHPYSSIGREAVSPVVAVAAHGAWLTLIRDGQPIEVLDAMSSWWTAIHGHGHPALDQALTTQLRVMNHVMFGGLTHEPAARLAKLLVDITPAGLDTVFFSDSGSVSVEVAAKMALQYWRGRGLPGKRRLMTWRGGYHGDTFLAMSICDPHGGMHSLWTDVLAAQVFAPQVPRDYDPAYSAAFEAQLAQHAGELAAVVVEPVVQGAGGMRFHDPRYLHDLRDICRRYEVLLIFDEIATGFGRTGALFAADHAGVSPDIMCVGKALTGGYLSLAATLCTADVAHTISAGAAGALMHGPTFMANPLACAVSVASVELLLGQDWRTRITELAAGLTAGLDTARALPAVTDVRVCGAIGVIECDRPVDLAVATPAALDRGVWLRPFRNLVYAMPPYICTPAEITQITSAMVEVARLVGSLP

[7] = tested on: P388/ADR; test: cells; type: functional; details: Mus musculus
[8] = Fluorescence-based cell-based high throughput dose response assay for inhibitors of the interaction of nucleotide-binding oligomerization domain containing 2 (NOD2) and the receptor-interacting serine-threonine kinase 2 (RIPK2).; type: functional; details: Homo sapiens
[9] = tested on: Vero; test: cells; type: functional; details: Chlorocebus sabaeus
[10] = tested on: P388; test: cells; type: functional; details: Mus musculus
[11] = alpha-synuclein stem-loop luciferase translation blockers – H4 neuroglioma cells, luminescence, confirmation (AID 1988); type: functional, cell-based
[12] = DRD fibroblast viability loss – cell-based, non-viral oncogenic, luminescence, dose response (AID 1934); type: functional; details: Homo sapiens
[13] = tested on: BJ; test: BJ-TERT fibroblast viability loss – cell-based, RAS-independent, luminescence, dose response (AID 1933); type: functional; details: Homo sapiens
[14] = tested on: BJ; test: BJ-TERT-LT-ST fibroblast viability loss – cell-based, RAS-independent, luminescence, dose response (AID 1935); type: functional; details: Homo sapiens;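 further: BJ fibroblasts immortalized with TERT plus LT and ST oncogenes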
[15] = biological target: T2, COUP transcription factor 2 (Homo sapiens, UniProt P24468); test: Luminescence-based cell-based high throughput dose response assay to identify inhibitors of COUP-TFII (NR2F2).; type: functional;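 further: HEK293 cells transiently cotransfected with COUP-TFII expression vector and reporter; luciferase reporter luminescence driven by COUP-TFII from the pX2-168 reporter plasmid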
T2 sequence (P24468 whole entry): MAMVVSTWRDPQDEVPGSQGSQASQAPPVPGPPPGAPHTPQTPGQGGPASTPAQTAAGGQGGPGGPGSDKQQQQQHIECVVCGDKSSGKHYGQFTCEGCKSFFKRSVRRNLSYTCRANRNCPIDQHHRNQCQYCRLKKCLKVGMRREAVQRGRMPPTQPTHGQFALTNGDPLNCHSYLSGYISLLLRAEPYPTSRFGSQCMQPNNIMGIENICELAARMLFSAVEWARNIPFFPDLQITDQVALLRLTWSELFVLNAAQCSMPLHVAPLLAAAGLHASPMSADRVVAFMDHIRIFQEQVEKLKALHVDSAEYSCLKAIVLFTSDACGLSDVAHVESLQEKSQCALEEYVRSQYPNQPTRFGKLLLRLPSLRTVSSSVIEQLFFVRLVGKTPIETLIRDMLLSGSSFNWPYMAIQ

[16] = tested on: INS1; test: INS-1E survival protection against cytokine death – cell-based, luminescence, retest, dose response (AID 449756); type: functional; details: Rattus norvegicus;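 further: cell death triggered by IL-1 beta plus TNF-alpha plus IFN-gamma mixture; protective hits raise ATP signal compared with cytokine alone wells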
[17] = luciferase reporter signal suppression in cells – H4 neuroglioma cells, luminescence, dose response (AID 1990); type: functional, cell-based
[18] = tested on: BJ; test: cells; type: functional, cell-based; details: Homo sapiens
[19] = biological target: T3, Replicative DNA helicase DnaB (Mycobacterium tuberculosis, UniProt P9WMR3); test: DnaB intein splicing inhibitors, dose response, biochemical, cell-free fluorescence (AID 449749); type: functional
T3 sequence (P9WMR3 whole entry): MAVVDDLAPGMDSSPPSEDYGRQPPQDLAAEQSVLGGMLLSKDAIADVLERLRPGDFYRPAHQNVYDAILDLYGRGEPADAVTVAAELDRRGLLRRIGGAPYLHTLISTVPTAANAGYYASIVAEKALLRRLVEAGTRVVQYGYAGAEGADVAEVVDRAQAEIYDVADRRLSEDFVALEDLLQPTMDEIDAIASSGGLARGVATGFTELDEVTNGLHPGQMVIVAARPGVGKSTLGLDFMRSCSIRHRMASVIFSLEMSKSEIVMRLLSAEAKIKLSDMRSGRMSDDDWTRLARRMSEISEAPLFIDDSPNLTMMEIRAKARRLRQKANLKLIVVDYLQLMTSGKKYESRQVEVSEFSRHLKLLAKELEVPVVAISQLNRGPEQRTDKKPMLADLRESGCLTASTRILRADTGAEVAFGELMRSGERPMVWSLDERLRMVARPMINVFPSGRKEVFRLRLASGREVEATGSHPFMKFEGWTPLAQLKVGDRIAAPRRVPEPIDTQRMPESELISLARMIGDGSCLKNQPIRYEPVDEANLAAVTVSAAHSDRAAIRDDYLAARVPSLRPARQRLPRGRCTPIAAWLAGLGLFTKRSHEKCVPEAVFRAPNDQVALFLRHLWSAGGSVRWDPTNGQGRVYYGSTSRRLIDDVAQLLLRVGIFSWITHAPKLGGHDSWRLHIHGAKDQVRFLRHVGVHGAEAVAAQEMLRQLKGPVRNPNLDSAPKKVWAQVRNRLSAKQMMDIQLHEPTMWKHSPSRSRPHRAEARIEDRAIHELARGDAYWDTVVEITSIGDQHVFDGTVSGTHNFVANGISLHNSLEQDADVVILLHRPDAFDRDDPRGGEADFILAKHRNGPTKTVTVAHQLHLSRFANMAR

[20] = biological target: T4, Protein RecA (Mycobacterium tuberculosis, UniProt P9WHJ3); test: Fluorescence Cell-Free Homogeneous Dose Retest to Identify Inhibitors of RecA-Intein Splicing Activity. [Related pubchem assays (depositor defined):AID2097, AID2223, AID489010, AID492950]; type: functional
T4 sequence (P9WHJ3 whole entry): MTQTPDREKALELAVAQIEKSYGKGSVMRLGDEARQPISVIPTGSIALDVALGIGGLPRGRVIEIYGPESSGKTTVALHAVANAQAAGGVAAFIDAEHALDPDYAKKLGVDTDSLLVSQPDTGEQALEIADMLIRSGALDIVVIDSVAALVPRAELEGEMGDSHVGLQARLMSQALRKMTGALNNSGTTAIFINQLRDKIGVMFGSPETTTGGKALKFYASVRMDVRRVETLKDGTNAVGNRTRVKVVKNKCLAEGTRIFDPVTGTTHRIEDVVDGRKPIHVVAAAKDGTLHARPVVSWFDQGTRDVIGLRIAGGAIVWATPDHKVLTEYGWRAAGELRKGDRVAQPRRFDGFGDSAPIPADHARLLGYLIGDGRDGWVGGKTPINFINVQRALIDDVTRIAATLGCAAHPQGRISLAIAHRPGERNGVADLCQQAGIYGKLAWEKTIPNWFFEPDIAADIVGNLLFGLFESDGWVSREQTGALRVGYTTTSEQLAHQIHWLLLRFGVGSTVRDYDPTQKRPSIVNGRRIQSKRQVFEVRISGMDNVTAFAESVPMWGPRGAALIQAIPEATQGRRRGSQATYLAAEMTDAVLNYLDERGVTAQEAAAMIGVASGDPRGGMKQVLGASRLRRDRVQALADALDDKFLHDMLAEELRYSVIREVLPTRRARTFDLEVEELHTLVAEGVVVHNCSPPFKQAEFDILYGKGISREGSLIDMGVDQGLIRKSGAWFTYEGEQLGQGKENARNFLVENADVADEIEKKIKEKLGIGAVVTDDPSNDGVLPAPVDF

[21] = Luminescence Cell-Based Dose Response HTS to Identify Inhibitors of 5'UTR Stem-Loop Driven Prion Protein mRNA Translation in H4 Neuroglioblastoma Cells. [Related pubchem assays: 1827 (Project Summary), 1813 (Primary HTS)]; type: functional
[22] = cells; type: functional, cell-based
[23] = cells; type: functional, cell-based; remark: listed apart in the source
[24] = biological target: Photoreceptor-specific nuclear receptor (Homo sapiens, UniProt Q9Y5X4); type: functional, cell-based;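 further: CHO-S cells with Gal4-NCOR and VP16-NR2E3 two-hybrid luciferase reporter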
[25] = biological target: Heat shock protein HSP 90-alpha (Homo sapiens, UniProt P07900); type: functional, organism-based
[26] = reduction of Shn3 3'UTR-driven luciferase in osteoblasts – cell-based, Clone20 osteoblasts, firefly luciferase, cherry-picked, dose response (AID 624132); type: functional;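 further: firefly luciferase luminescence from reporter carrying the Shn3 3'UTR in osteoblasts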
[27] = loss of viability in HepG2 cells – cell-based, CellTiter-Glo, cherry-picked, cytotoxicity control for Shn3 inhibitor project, dose response (AID 624134); type: functional
[28] = non-specific 3'UTR reporter inhibition in Clone20-Shn3RL – cell-based, Renilla luciferase, cherry-picked, counter-screen for Shn3 inhibitor project, dose response (AID 624133); type: functional

Chain of Eukaryotic translation initiation factor 4E (P63073 whole entry): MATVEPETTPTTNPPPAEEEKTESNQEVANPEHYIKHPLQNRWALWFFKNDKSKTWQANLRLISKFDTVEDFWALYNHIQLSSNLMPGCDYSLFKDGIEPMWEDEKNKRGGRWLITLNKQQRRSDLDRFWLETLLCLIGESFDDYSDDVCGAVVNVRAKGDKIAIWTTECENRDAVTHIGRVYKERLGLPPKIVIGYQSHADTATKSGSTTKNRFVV
Chain of Ras and Rab interactor 1/Tyrosine-protein kinase ABL1 (P00519 whole entry): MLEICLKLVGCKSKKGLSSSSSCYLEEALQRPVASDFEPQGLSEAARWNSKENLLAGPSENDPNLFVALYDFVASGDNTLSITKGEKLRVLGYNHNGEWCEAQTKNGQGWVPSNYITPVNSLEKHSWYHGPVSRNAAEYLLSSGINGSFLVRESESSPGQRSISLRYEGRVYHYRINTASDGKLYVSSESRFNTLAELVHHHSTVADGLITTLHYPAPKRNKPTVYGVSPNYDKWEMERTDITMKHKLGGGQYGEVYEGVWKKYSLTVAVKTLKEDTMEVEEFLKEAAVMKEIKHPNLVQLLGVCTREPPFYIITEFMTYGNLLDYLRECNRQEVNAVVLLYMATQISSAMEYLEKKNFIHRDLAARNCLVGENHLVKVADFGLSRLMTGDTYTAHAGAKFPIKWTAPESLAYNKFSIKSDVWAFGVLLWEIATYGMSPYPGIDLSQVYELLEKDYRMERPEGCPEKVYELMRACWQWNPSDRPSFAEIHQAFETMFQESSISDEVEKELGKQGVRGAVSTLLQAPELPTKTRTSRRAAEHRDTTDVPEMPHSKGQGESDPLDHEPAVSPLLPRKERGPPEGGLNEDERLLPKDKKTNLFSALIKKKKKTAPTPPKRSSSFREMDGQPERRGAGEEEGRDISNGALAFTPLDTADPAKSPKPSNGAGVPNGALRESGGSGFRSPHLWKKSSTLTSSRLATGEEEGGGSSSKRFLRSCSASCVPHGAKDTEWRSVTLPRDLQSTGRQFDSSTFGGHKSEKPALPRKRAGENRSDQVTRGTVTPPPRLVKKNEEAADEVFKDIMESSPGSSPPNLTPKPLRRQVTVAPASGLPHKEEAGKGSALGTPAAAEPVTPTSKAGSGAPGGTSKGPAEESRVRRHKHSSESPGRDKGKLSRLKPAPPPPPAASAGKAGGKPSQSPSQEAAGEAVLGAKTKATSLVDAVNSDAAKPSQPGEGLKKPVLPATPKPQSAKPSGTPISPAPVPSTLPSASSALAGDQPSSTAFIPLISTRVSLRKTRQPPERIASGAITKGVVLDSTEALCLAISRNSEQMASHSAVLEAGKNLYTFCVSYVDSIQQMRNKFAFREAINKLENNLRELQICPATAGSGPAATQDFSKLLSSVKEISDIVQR
Chain of Ras and Rab interactor 1/Tyrosine-protein kinase ABL1 (Q13671 whole entry): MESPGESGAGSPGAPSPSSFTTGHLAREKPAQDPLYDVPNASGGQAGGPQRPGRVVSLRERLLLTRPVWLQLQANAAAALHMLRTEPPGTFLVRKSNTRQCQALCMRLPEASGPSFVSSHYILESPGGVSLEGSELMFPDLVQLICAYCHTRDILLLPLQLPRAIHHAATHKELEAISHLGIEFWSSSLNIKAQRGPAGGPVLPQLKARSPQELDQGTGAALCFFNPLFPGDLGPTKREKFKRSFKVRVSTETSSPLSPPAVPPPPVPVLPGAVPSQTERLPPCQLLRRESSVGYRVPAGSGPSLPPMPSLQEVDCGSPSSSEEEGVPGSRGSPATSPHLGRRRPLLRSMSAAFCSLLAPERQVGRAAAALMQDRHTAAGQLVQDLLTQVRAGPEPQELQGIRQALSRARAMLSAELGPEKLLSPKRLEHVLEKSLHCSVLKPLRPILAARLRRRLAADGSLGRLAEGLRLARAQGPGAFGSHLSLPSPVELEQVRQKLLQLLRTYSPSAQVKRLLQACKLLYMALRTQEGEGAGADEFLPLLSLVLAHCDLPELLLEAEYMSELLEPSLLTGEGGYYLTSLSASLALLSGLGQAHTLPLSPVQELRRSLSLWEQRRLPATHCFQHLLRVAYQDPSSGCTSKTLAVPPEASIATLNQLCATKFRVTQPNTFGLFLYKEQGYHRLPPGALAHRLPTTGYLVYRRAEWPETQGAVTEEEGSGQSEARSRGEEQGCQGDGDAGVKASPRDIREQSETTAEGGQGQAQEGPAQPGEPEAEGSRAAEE
Chain of Paired box protein Pax-8 (Q06710 whole entry): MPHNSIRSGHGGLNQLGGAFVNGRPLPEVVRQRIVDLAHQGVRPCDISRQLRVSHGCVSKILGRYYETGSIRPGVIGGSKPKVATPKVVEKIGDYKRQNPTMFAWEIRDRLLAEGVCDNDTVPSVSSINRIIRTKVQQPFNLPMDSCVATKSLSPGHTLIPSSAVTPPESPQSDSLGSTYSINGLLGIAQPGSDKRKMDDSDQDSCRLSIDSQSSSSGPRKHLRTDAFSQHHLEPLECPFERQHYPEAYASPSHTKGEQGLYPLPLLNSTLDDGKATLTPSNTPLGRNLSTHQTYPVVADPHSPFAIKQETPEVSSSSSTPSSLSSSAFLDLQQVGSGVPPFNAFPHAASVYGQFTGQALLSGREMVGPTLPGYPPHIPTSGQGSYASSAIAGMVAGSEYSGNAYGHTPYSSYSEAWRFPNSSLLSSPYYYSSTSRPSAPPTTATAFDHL
Chain of Photoreceptor-specific nuclear receptor (Q9Y5X4 whole entry, the tested form may be a part): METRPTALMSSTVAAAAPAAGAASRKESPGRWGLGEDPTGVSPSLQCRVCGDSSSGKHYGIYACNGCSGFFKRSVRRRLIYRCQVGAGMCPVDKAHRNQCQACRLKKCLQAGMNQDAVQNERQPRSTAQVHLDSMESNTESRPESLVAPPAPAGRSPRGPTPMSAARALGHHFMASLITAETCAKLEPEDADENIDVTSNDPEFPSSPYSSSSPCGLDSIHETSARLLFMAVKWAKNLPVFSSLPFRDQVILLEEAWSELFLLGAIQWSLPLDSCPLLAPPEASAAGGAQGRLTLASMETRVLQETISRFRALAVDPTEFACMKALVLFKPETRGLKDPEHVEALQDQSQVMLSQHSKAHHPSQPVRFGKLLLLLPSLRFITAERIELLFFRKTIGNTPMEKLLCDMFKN

Nc1nnc(CC(=O)N2CCCCC2)s1
IC50 [1]: > 64 µM (inactive)

O=[N+]([O-])c1cccc(-c2ccc(/C=N/n3c(S)nnc3-c3ccccc3)o2)c1
IC50 [1]: > 64 µM (inactive)

COc1ccc(OC)c(N(CCN2C(=O)c3ccccc3C2=O)C(=O)CCl)c1
AC50 [2]: 0.966 µM (active)
AC50 [3]: 2.34 µM (active)

Cc1onc(-c2ccccc2)c1C(=O)Nc1nc(-c2cc(F)ccc2F)cs1
AC50 [4]: 38.9 µM (active)

C[C@@H]1CCCCO[C@@H](CN(C)S(=O)(=O)c2ccccc2)[C@@H](C)CN([C@H](C)CO)C(=O)c2cc(NS(=O)(=O)c3ccc(F)cc3)ccc2O1
IC50 [5]: 1.9 µM (active)

Cc1ccc(Cc2c(C)nc3nc(SCC(=O)NCCN4CCOCC4)nn3c2C)cc1
AC50 [6]: 12.6 µM (active)

COCCNC(=O)C[C@@H]1CC[C@@H]2[C@@H](COc3ccc(NC(=O)Nc4cccc(F)c4)cc3C(=O)N2C)O1
AC50 [6]: 10.8 µM (active)

COc1cc(NC(=O)C2CCCCC2)c(OC)cc1NC(=O)c1ccco1
AC50 [4]: 30.6 µM (active)

Cc1nc(C(C)(C)O)n(-c2ccccc2)n1
IC50 [1]: > 64 µM (inactive)

O=C(c1cc(COc2cccc3cccnc23)on1)N1CCC[C@H]1CO
IC50 [5]: 2.94 µM (active)

COc1ccc(CC2C(=O)NC(C)C(=O)N(C)C3Cc4ccc(cc4)Oc4cc(ccc4O)CC(C(=O)NC(C)C(=O)NC(C)C(=O)N2C)N(C)C3=O)cc1 (stereo not given)
AC50 [2]: < 0.26 µM (active)
GI50 [7]: 3.94 µM (inactive)
IC50 [8]: 49.8 µM (inactive)
CC50 [9]: 3.44 µM (active)
GI50 [10]: 0.0175 µM (active)

CS(=O)(=O)c1ccc(Cl)c(NC(=O)COC(=O)CCc2c[nH]c3ccccc23)c1
AC50 [4]: 31.5 µM (active)

N#CC(C#N)=C(Nc1ccc(F)cc1)SCc1cccc(Br)c1
EC50 [11]: 13.5 µM (active)
EC50 [12]: 21.7 µM (active)
EC50 [13]: 11.8 µM (inconclusive)
EC50 [14]: 22.5 µM (active)
IC50 [15]: 11.3 µM (inactive)
AC50 [16]: 2.92 µM (active)
EC50 [17]: 11.2 µM (active)
EC50 [18]: 22.2 µM (active)
AC50 [19]: 3.08 µM (active)
EC50 [20]: 2.38 µM (active)
EC50 [21]: 0.272 µM (active)

O=C1CNC(=O)N1CC(O)Cn1c2ccccc2c2ccccc21 (stereo not given)
IC50 [5]: 11.9 µM (inactive)

CCn1c(SCC(=O)Nc2ccccc2OC)nc2ccccc2c1=O
IC50 [1]: > 64 µM (inactive)

O=C(Nc1ccc(F)cc1)NC1CCN(Cc2nnnn2Cc2ccco2)CC1
AC50 [6]: 3.58 µM (active)

Cc1cc(C)c(NS(=O)(=O)c2ccc3c(c2)NC(=O)CCS3)c(C)c1
EC50 [22]: > 350 µM (not active)
AC50 [4]: 23.1 µM (active)
EC50 [23]: 58.1 µM (active)

CCOC(=O)CCCCC(=O)c1[nH]c(=O)[nH]c1CSc1nc(C)cc(C)n1
IC50 [5]: 2.39 µM (active)

O=C(CN1C(=O)C(c2ccc(F)cc2)=NC12CCCC2)Nc1ccc(F)cc1
IC50 [24]: 2.93 µM (active)

CC1CC(C)C(=NNC(N)=O)C(C(O)CC2CCC(=O)NC2=O)C1 (stereo not given)
IC50 [24]: 2.53 µM (active)
AC50 [25]: < 0.195 µM (active)
CC50 [9]: > 25 µM (active)

CC1CN(C(=O)Nc2ccc3snnc3c2)c2ccccc21 (stereo not given)
AC50 [6]: 0.212 µM (active)

COC1CC2C=C(C)C=CC=CC(=O)NC(c3ccccc3)CC=CCCC(O)CC(O)=C2C1=O (stereo not given)
AC50 [2]: 0.673 µM (active)
AC50 [3]: 4.97 µM (active)
AC50 [26]: 0.629 µM (active)
AC50 [27]: 3.98 µM (active)
AC50 [28]: 1.48 µM (active)
